Results taken from ChEMBL document CHEMBL3044803, “Impact of tricyclazole and azoxystrobin on growth, sporulation and secondary infection of the rice blast fungus, Magnaporthe oryzae” (Pest Manag Sci, 2013).
In brackets after ≈: the same amount, converted by molar mass. Activity calls are given as the source filed them. The rule behind the calls is not given here.

What was measured:
Pyricularia grisea = assay: Fungicidal activity against Magnaporthe grisea; format: functional; conditions: read-out: ED50 (the source's name)
Pyricularia oryzae [1] = assay: microbe, parasite or virus in culture; format: functional; conditions: for EC50: Pyricularia oryzae, 168 h, read-out: ED50 (the source's name)
Pyricularia oryzae [2] = assay: Fungicidal activity against Magnaporthe oryzae assessed as reduction of appressorium diameter of conidia at 0.01 to 1 mg/l at 26 degC measured after 7 days; format: functional, organism-based
Pyricularia oryzae [3] = assay: Fungicidal activity against Magnaporthe oryzae assessed as germination of conidia at 1 mg/l at 26 degC measured after 7 days; format: functional
Pyricularia oryzae [4] = assay: Fungicidal activity against Magnaporthe oryzae assessed as germination of conidia at 0.01 mg/l at 26 degC measured after 7 days; format: functional, organism-based
Pyricularia oryzae [5] = assay: microbe, parasite or virus in culture; format: functional, organism-based; conditions: 168 h
Pyricularia oryzae [6] = assay: microbe, parasite or virus in culture; format: functional; conditions: 168 h
Pyricularia oryzae [7] = assay: Fungicidal activity against Magnaporthe oryzae from perennial ryegrass; format: functional; conditions: read-out: ED50 (the source's name)
Pyricularia oryzae [8] = assay: microbe, parasite or virus in culture; conditions: 168 h, read-out: INH

CO/C=C(/C(=O)OC)c1ccccc1Oc1cc(Oc2ccccc2C#N)ncn1 [AZOXYSTROBIN]
EC50 (Pyricularia grisea): 1.8 µg/mL (≈ 4.46 µM)
ED90 (Pyricularia oryzae [1]): 69.58 µg/mL (≈ 172 µM)
EC50 (Pyricularia oryzae [1]): 0.044 µg/mL (≈ 0.109 µM)
Activity (Pyricularia oryzae [2]): Active
Activity (Pyricularia oryzae [3]): 67.1%
Activity (Pyricularia oryzae [4]): inactive
EC50 (Pyricularia oryzae [5]): 0.017 µg/mL (≈ 0.0421 µM)
inhibition at 1 µg/mL (Pyricularia oryzae [6]): 95%
EC50 (Pyricularia oryzae [7]): 0.013 µg/mL (≈ 0.0322 µM)

Cc1cccc2sc3nncn3c12 [TRICYCLAZOLE]
ED90 (Pyricularia oryzae [1]): 215.64 µg/mL (≈ 1140 µM)
EC50 (Pyricularia oryzae [1]): 1 µg/mL (≈ 5.31 µM)
EC50 (Pyricularia oryzae [5]): 0.072 µg/mL (≈ 0.38 µM)
inhibition at 5 µg/mL (Pyricularia oryzae [8]): 95%
